Here are results for 33 compounds from patent publication US10556898B2, “Indazolyl-1,2,4-thiadiazolamines and related compounds for inhibition of Rho-associated protein kinase and the treatment of disease” (Lycera Corporation, priority 2016, dated 2020).

Where two headings read alike, the source gives them in different places. Bounds are passed on as bounds.

Assay [1] deals with T1, GST-tagged human ROCK1 catalytic domain 1-477 (Homo sapiens, UniProt Q13464).
T1 construct: human ROCK1 catalytic domain 1-477 from Carna Biosciences (cat #01-109); purchased Carna Biosciences 01-109; host or cells: baculovirus expression system
Description: Isolated Enzyme Assay, ROCK1 (LANCE Ultra ULight-CREBtide FRET). The assay is classed as biochemical. The following applies: 30 μM highest concentration tested, read-out: Results from Isolated Enzyme Assay IC50 (μM) ROCK1. Here is the method:
(§1) Exemplary compounds were tested for ability to inhibit Rho-associated protein kinase isoform 1 (ROCK1) and Rho-associated protein kinase isoform 2 (ROCK2). Assay procedures and results are described below.
(§2) Part I—Procedure for Determining ROCK Inhibition Ability of Test Compounds Using an Isolated Enzyme Assay
(§3) Protein constructs were purified from a baculovirus expression system. The peptide substrate was fluorescent LANCE® Ultra ULight-CREBtide: […] (PerkinElmer, # TRF0107-D). Kinase reactions were carried out in a 10 μL volume in 384-well plates: 50 nM ULight-CREBtide substrate, 2 nM constitutively active ROCK1 or ROCK2 kinase, and test compound in DMSO (or DMSO only for controls) were diluted into assay buffer containing 50 mM Tris-HCl (pH=7.5), 10 mM MgCl2, 1 mM EGTA, 0.01% Tween-20, and 2 mM DTT such that the final concentration of DMSO was 0.5%. After a 90 minute incubation at room temperature on a shaker table, the kinase reaction was stopped by addition of 10 mM EDTA, and phosphorylation of the substrate was detected by adding 1 nM LANCE® Ultra Europium-anti-phospho-CREB (ser133) antibody (PerkinElmer, # TRF0200-D) and incubating for 60 minutes on a shaker at room temperature. The fluorescence resonance energy transfer (FRET) signals were read and analyzed on an Envision™ 2103 Multilabel Reader (Perkin Elmer). The concentration of test compound required to inhibit substrate phosphorylation by 50% (the IC50) was calculated by non-linear regression using GraphPad PRIZM.

For a further assay, the target named is T2, ROCK2 (Homo sapiens, UniProt O75116).
T2 construct: endogenous in cells; host or cells: HAP1 knockout cells
Put plainly: Cell-Based Assay, ROCK2 (HAP1 knockout cells, phospho-MYPT1 Thr853 ELISA). Conditions: read-out: Results from Cell-Based Assay IC50 (μM) ROCK2. The procedure: Part II—Procedure for Determining ROCK Inhibition Ability of Test Compounds Using a Cell-Base Assay
The Cell-Based Assay for determining ROCK inhibition ability of test compounds utilized a genetically modified HAP1 cell line engineered to eliminate expression of either ROCK1 or ROCK2. In the procedure, HAP1 knockout cells are grown in Iscove's Modified Dulbecco's Medium that is additionally supplemented with 10% fetal bovine and 1x antibiotic-antimycotic mixture. Cells are plated in 96 well tissue culture plates at 1×10^5 cells/well (100 μL, of cells at 1×10^6/mL). Test compounds are solubilized in DMSO and diluted into the same media used to grow the cells. A 100 μL, aliquot of each compound dilution in media is added to each well containing the HAP1 cells and incubated at 37° C. for 30 minutes. Following compound incubation, the cells are pelleted by centrifugation at 1800 rpm for 5 minutes at 4° C. Media is removed from the cell pellet and the cells lysed and de-salted. An 80 μL, aliquot of each cell lysate is added to a single well of a 96-well high binding ELISA plate which has been pre-coated with a MYPT1 capture antibody and incubated at 4° C. overnight. The following day the ELISA plate is washed 4× with 0.05% Tween-20 in PBS. After washing, an anti-phospho-MYPT1 (Thr853) antibody is added and allowed to bind for 1 hour at room temperature. The wash step is repeated, and then an anti-rabbit HRP detection antibody is added and allowed to incubate at room temperature for 1 hour. The wash step is then repeated and 100 μL/well 1-Step™ Ultra TMB substrate is added to the ELISA plate and allowed to develop for approximately 5 minutes. The reaction is stopped by addition of H2SO4. Absorbance is read at 450 OD. Data is analyzed using GraphPad Prism software to calculate the 50% inhibitory concentration of test compound (IC50).

The target of assay [2] is T3, GST-tagged human ROCK2 catalytic domain 1-553 (Homo sapiens, UniProt O75116).
T3 construct: GST-tagged human ROCK2 catalytic domain 1-553 from Carna Biosciences (Cat #01-110); purchased Carna Biosciences 01-110; host or cells: baculovirus expression system
Description: Isolated Enzyme Assay, ROCK2 (LANCE Ultra ULight-CREBtide FRET). The assay is classed as biochemical. Conditions: 30 μM highest concentration tested, read-out: Results from Isolated Enzyme Assay IC50 (μM) ROCK2. The procedure: as §1, §2, §3
A general note: In TR-FRET formats the signal depends on donor and acceptor labels being close together.

The mark [3] stands for this setting: phospho-MYPT1, 30 μM highest concentration tested.

T3 sequence (O75116 1-553): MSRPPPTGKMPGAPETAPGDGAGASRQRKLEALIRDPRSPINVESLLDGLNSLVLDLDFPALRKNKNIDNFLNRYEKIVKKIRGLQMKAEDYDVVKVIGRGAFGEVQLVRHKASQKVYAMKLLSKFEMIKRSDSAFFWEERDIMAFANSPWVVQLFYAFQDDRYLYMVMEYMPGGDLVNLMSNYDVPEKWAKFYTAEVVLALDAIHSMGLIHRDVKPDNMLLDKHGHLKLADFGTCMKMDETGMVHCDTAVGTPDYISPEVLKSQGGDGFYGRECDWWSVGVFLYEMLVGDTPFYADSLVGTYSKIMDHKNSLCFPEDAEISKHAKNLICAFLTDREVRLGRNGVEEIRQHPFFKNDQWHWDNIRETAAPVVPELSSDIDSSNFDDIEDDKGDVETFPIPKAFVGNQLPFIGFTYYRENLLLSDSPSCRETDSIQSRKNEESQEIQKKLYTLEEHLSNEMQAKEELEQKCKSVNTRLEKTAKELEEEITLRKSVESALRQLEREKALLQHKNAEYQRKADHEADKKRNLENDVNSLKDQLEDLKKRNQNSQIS
T1 sequence (Q13464 1-477): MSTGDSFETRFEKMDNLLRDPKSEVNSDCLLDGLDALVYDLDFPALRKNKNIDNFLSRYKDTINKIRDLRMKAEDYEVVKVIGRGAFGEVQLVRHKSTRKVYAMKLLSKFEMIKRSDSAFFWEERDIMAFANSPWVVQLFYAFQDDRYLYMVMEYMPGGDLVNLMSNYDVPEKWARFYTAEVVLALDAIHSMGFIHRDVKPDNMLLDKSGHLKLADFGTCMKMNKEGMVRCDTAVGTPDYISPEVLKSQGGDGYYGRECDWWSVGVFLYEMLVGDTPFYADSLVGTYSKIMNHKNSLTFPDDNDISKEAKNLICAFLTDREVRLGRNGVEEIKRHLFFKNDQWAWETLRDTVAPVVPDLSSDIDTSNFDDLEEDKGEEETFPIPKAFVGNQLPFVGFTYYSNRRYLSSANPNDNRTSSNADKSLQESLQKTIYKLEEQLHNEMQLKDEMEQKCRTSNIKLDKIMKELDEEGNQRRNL
T2 sequence (O75116 whole entry): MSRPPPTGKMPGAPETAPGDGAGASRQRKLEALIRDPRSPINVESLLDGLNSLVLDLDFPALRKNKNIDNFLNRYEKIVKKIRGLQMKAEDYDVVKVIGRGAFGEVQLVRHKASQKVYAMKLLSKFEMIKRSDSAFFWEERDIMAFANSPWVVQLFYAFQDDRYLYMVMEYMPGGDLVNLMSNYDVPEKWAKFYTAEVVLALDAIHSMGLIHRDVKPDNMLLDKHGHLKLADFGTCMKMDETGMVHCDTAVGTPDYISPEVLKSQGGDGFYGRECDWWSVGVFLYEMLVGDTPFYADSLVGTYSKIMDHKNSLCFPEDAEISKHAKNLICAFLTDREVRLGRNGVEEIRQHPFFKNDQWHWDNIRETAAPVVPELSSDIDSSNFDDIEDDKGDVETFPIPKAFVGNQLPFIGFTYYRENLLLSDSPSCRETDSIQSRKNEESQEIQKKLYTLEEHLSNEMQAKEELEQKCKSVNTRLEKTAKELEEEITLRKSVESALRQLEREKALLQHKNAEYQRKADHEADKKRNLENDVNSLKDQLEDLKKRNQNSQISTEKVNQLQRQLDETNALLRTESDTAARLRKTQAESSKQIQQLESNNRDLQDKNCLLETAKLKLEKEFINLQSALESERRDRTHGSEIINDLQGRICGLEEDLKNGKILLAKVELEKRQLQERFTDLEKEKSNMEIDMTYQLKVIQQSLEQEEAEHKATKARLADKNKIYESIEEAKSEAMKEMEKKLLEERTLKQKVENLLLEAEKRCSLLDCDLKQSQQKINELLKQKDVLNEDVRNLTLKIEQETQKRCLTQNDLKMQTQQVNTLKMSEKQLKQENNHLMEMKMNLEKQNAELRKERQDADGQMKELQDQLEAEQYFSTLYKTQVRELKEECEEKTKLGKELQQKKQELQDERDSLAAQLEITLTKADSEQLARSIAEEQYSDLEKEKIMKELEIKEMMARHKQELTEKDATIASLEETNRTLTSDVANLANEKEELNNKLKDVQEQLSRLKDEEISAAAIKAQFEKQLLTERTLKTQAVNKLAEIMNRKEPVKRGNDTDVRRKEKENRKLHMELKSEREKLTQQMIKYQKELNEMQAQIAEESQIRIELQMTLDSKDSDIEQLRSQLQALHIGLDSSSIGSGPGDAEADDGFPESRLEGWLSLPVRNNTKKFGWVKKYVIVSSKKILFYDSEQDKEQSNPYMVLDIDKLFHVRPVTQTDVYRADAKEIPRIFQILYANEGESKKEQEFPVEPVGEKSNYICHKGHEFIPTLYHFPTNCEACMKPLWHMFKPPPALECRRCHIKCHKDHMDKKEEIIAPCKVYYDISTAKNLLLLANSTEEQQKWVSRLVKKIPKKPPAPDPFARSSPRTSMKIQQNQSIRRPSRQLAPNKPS

Consider `Cc1nn(C)cc1C(=O)Nc1cccc(-c2nsc(Nc3ccc4[nH]ncc4c3Cl)n2)c1` [Compound A-15], for which the IC50 (in assay [1] (isolated enzyme); at ROCK2 (setting [3]); in assay [2] (isolated enzyme)) was less than 1 µM throughout.
As to `Cn1nccc1C(=O)Nc1cccc(-c2nsc(Nc3ccc4[nH]ncc4c3C#N)n2)c1` [IV-33], the IC50 – broadly, the midpoint of a concentration-inhibition curve – in assay [1] (isolated enzyme assay) is less than 1 µM; at ROCK2 (numeric bound) it was more than 10 µM; in assay [2] (isolated enzyme assay), less than 1 µM.
For `Cc1cc(C(=O)Nc2cccc(-c3nsc(Nc4ccc5[nH]ncc5c4Cl)n3)c2)on1` [Compound A-18], the IC50 (in assay [1] (isolated enzyme); at ROCK2 (setting [3]); in assay [2] (isolated enzyme)) was less than 1 µM in each case.
`Cn1cnc(C(=O)Nc2cc(-c3nsc(Nc4ccc5[nH]ncc5c4Cl)n3)ccn2)c1` [IV-29]: the IC50 in assay [1] (isolated enzyme assay) is more than 30 µM; on ROCK2 (numeric bound), more than 10 µM; in assay [2] (isolated enzyme assay), less than 1 µM.
Take `O=C(Nc1cc(-c2nsc(Nc3ccc4[nH]ncc4c3Cl)n2)ccn1)N1CCOCC1` [Compound A-19]: the IC50 (in assay [1] (isolated enzyme); at ROCK2 (setting [3]); in assay [2] (isolated enzyme)) was less than 1 µM in each case.
On to `O=C(Nc1cccc(-c2nsc(Nc3ccc4[nH]ncc4c3Cl)n2)c1)c1cncs1` [Compound A-16], for which the IC50 (in assay [1] (isolated enzyme); at ROCK2 (setting [3]); in assay [2] (isolated enzyme)) was less than 1 µM each time.
As to `Cc1ncc(-c2nsc(Nc3ccc4[nH]ncc4c3Cl)n2)cc1NC(=O)c1ccnn1C` [IV-69], the IC50 is 1 to 15 µM in assay [1] (isolated enzyme assay), more than 10 µM at ROCK2 (numeric bound) and less than 1 µM in assay [2] (isolated enzyme assay).
On to `Cc1cnc(-c2cncc(-c3nsc(Nc4ccc5[nH]ncc5c4Cl)n3)c2)o1` [IV-103], for which the IC50 is more than 30 µM in assay [1] (isolated enzyme assay), more than 10 µM at ROCK2 (numeric bound) and more than 30 µM in assay [2] (isolated enzyme assay).
For `O=C(NC1CCC1)c1cc(-c2nsc(Nc3ccc4[nH]ncc4c3Cl)n2)ccc1F` [IV-30], the IC50 (in assay [1] (isolated enzyme assay); at ROCK2 (class symbols); in assay [2] (isolated enzyme assay)) was less than 1 µM each time.
Consider `COc1cccc(C(=O)Nc2cncc(-c3nsc(Nc4ccc5[nH]ncc5c4Cl)n3)c2)c1` [IV-101], for which the figures for the IC50 (in assay [1] (isolated enzyme assay); at ROCK2 (numeric bound); in assay [2] (isolated enzyme assay)) were more than 30 µM, more than 10 µM and more than 30 µM, respectively.
Turning to `Cc1coc(-c2cncc(-c3nsc(Nc4ccc5[nH]ncc5c4Cl)n3)c2)n1` [IV-97], the IC50 is more than 30 µM in assay [1] (isolated enzyme assay), more than 10 µM at ROCK2 (numeric bound) and more than 30 µM in assay [2] (isolated enzyme assay).
As for `Cn1nc(C(=O)Nc2cccc(-c3nsc(Nc4ccc5[nH]ncc5c4Cl)n3)c2)cc1C(F)(F)F` [Compound A-13], the IC50 (in assay [1] (isolated enzyme); at ROCK2 (setting [3]); in assay [2] (isolated enzyme)) was less than 1 µM throughout.
For the compound `Cn1cc(CC(=O)Nc2cccc(-c3nsc(Nc4ccc5[nH]ncc5c4Cl)n3)c2)cn1` [Compound A-20], the IC50 (in assay [1] (isolated enzyme); at ROCK2 (setting [3]); in assay [2] (isolated enzyme)) was less than 1 µM each time.
As to `O=C(NC(CO)CO)c1cc(-c2nsc(Nc3ccc4[nH]ncc4c3Cl)n2)ccc1F` [IV-21], the results for the 50% inhibitory concentration (IC50) (in assay [1] (isolated enzyme assay); on ROCK2 (class symbols); in assay [2] (isolated enzyme assay)) were less than 1 µM, 1 to 15 µM and less than 1 µM, respectively.
As to `O=C(Nc1cccc(-c2nsc(Nc3ccc4[nH]ncc4c3Cl)n2)c1)c1nc(O)co1` [IV-79], the IC50 is less than 1 µM in assay [1] (isolated enzyme assay), more than 10 µM at ROCK2 (numeric bound) and less than 1 µM in assay [2] (isolated enzyme assay).
Regarding `Cc1cc(-c2nc(C)co2)cc(-c2nsc(Nc3ccc4[nH]ncc4c3Cl)n2)n1` [IV-105], the IC50 was more than 30 µM in assay [1] (isolated enzyme assay), more than 10 µM at ROCK2 (numeric bound) and more than 30 µM in assay [2] (isolated enzyme assay).
As for `Cc1cn2cccc(-c3nsc(Nc4ccc5[nH]ncc5c4Cl)n3)c2n1` [IV-89], the IC50 in assay [1] (isolated enzyme assay) was less than 1 µM; at ROCK2 (numeric bound), more than 10 µM; in assay [2] (isolated enzyme assay), less than 1 µM.
Take `Cn1cncc1C(=O)Nc1cccc(-c2nsc(Nc3ccc4[nH]ncc4c3Cl)n2)c1` [Compound A-23]: the IC50 (in assay [1] (isolated enzyme); on ROCK2 (setting [3]); in assay [2] (isolated enzyme)) was less than 1 µM in each case.
Take `O=C(Nc1cncc(-c2nsc(Nc3ccc4[nH]ncc4c3Cl)n2)c1)c1cnco1` [IV-24]: the IC50 in assay [1] (isolated enzyme assay) is more than 30 µM; on ROCK2 (numeric bound), more than 10 µM; in assay [2] (isolated enzyme assay), less than 1 µM.
With `COc1ncc(C(=O)Nc2cc(-c3nsc(Nc4ccc5[nH]ncc5c4Cl)n3)ccn2)cn1` [IV-27], the IC50 was more than 30 µM in assay [1] (isolated enzyme assay), more than 10 µM on ROCK2 (numeric bound) and less than 1 µM in assay [2] (isolated enzyme assay).
In the case of `O=C(Nc1cccc(-c2nsc(Nc3ccc4[nH]ncc4c3Cl)n2)c1)c1cocn1` [Compound A-21], the IC50 (in assay [1] (isolated enzyme); on ROCK2 (setting [3]); in assay [2] (isolated enzyme)) was less than 1 µM in each case.
With `O=C(Nc1cc(-c2nsc(Nc3ccc4[nH]ncc4c3Cl)n2)ccn1)c1cnco1` [IV-28], the IC50 was more than 30 µM in assay [1] (isolated enzyme assay), more than 10 µM on ROCK2 (numeric bound) and less than 1 µM in assay [2] (isolated enzyme assay).
As for `COc1ccc(C(=O)Nc2cc(-c3nsc(Nc4ccc5[nH]ncc5c4Cl)n3)ccn2)cc1` [IV-108], the IC50 in assay [1] (isolated enzyme assay) is more than 30 µM; on ROCK2 (class symbols), 1 to 15 µM; in assay [2] (isolated enzyme assay), less than 1 µM.
For the compound `CC(=O)Nc1cc(-c2nsc(Nc3ccc4[nH]ncc4c3Cl)n2)cn(C)c1=O` [IV-45], the concentration for half-maximal inhibition (IC50) in assay [1] (isolated enzyme assay) was less than 1 µM; at ROCK2 (numeric bound), more than 10 µM; in assay [2] (isolated enzyme assay), less than 1 µM.
On to `O=C(Nc1cccc(-c2nsc(Nc3ccc4[nH]ncc4c3Cl)n2)c1)c1cnco1` [Compound A-17], for which the IC50 (in assay [1] (isolated enzyme); on ROCK2 (setting [3]); in assay [2] (isolated enzyme)) was less than 1 µM in each case.
On to `COc1cccc(C(=O)Nc2cc(-c3nsc(Nc4ccc5[nH]ncc5c4Cl)n3)ccn2)c1` [IV-64], for which the IC50 in assay [1] (isolated enzyme assay) is more than 30 µM; on ROCK2 (class symbols), less than 1 µM; in assay [2] (isolated enzyme assay), more than 30 µM.
Take `Cc1coc(-c2cccc(-c3nsc(Nc4ccc5[nH]ncc5c4Cl)n3)c2)n1` [Compound A-10]: the IC50 (in assay [1] (isolated enzyme); at ROCK2 (setting [3]); in assay [2] (isolated enzyme)) was less than 1 µM throughout.
With `Cn1nccc1C(=O)Nc1cc(-c2nsc(Nc3ccc4[nH]ncc4c3Cl)n2)ccn1` [Compound A-9], the IC50 in assay [1] (isolated enzyme) was more than 30 µM; at ROCK2 (setting [3]), less than 1 µM; in assay [2] (isolated enzyme) it was less than 1 µM.
As for `CC1(C)CN(c2cccc(-c3nsc(Nc4ccc5[nH]ncc5c4C#N)n3)c2)C(=O)O1` [IV-34], the half-inhibitory concentration (IC50) in assay [1] (isolated enzyme assay) is less than 1 µM; on ROCK2 (class symbols) it was 1 to 15 µM; in assay [2] (isolated enzyme assay), less than 1 µM.
Regarding `O=C(Nc1cc(-c2nsc(Nc3ccc4[nH]ncc4c3Cl)n2)ccn1)c1ccccc1F` [IV-60], the figures for the IC50 (in assay [1] (isolated enzyme assay); on ROCK2 (class symbols); in assay [2] (isolated enzyme assay)) were more than 30 µM, 1 to 15 µM and more than 30 µM, respectively.
Regarding `COc1ccc(C(=O)Nc2cc(C)nc(-c3nsc(Nc4ccc5[nH]ncc5c4Cl)n3)c2)cc1` [IV-43], the IC50 in assay [1] (isolated enzyme assay) was more than 30 µM; at ROCK2 (class symbols) it was 1 to 15 µM; in assay [2] (isolated enzyme assay), more than 30 µM.
As to `Cn1ccnc1-c1cccc(-c2nsc(Nc3ccc4[nH]ncc4c3Cl)n2)c1` [IV-88], the values for the IC50 (in assay [1] (isolated enzyme assay); at ROCK2 (class symbols); in assay [2] (isolated enzyme assay)) were less than 1 µM, 1 to 15 µM and less than 1 µM, respectively.
As to `Cn1cnc(C(=O)Nc2cccc(-c3nsc(Nc4ccc5[nH]ncc5c4Cl)n3)c2)c1` [Compound A-22], the IC50 (in assay [1] (isolated enzyme); at ROCK2 (setting [3]); in assay [2] (isolated enzyme)) was less than 1 µM throughout.
